From PMC11855827, “High-Throughput Screening of Five Compound Libraries for Anthelmintic Activity and Toxicity Leads to the Discovery of Two Flavonoid Compounds” (International Journal of Molecular Sciences, 2025)
Where two headings read alike, the source gives them in different places.

What was measured:
C. elegans [1] = test: C. elegans motility dose-response (DR) assay; design: species or system Caenorhabditis elegans
C. elegans [2] = test: microbe, parasite or virus in culture; conditions: Caenorhabditis elegans
[3] = system: H. contortus susceptible strain; test: Egg hatch inhibition (EHI), ovicidal effect; design: species or system Haemonchus contortus; conditions: Haemonchus contortus; for inhibition at 100 µM: susceptible strain, NE = Not Effective at 100 μM, control thiabendazole 0.1 µg/mL
[4] = system: H. contortus susceptible strain; test: Larval migration inhibition test (LMIT); design: species or system Haemonchus contortus; conditions: L3, 100 μM, NE = Not Effective at 100 μM, control ivermectin 8.75 µg/mL; for inhibition at 100 µM: Haemonchus contortus, 24 h
Source text: (§1) Eggs and third instar larvae (L3) of H. contortus from a field strain and a resistant strain of T. circumcincta were used in the current trials. These parasitic forms were obtained from fresh feces of Merino and Churra sheep experimentally infected at the experimental farm of the Instituto de Ganadería de Montaña (IGM, CSIC, Gruyeros, León, Spain) and purified according to previously described methods. Briefly, eggs were taken from fresh feces, washed, centrifuged and floated with a saturated sodium chloride solution, then concentrated, counted and used in the assays. L3 were obtained by culturing feces at 25 °C for 13 d. L3 larvae were […] in 0.5% sodium hypochlorite solution for 10 min at room temperature and washed to avoid excess salt. After washing, they were concentrated and counted for use.
(§2) The viability of H. contortus larvae was assessed by the larval migration inhibition test (LMIT) according to previously described methods. Briefly, 700 µL aliquots containing 500–600 L3 were prepared for each compound. […] After a 24 h incubation at 28 °C, the compound was removed by three washes, leaving a final volume of 1400 µL. After the washes, three 400 µL aliquots were taken from each tube and transferred to a 96-well plate with a MultiScreen mesh filter. The plates were incubated for a further 24 h at 28 °C to allow the motile L3 to pass through the 20 µm mesh for counting. Then, the number of larvae present in each well was counted to determine percentage of larval migration for each compound: % Larval migration=number of larvae migrating in compound wells/number of larvae migrating in negative control×100
(§3) For the larvae, ivermectin at 8.75 µg/mL and DMSO 0.5% (v/v) were used as controls and at least 12 replicates were performed. […] EC50 were determined by plotting the percentage of viability of the L1 against the concentration of each compound, using the nonlinear fit analysis provided by the SigmaPlot® 10.1.

[5] = system: T. circumcincta resistant strain; test: Egg hatch inhibition (EHI), ovicidal effect; design: species or system Teladorsagia circumcincta; conditions: Teladorsagia circumcincta
C. elegans [6] = conditions: read-out: EC50 found in the literature; cited from earlier work
C. elegans [7] = system: C. elegans
[8] = system: T. circumcincta resistant strain; test: Larval migration inhibition test (LMIT); design: species or system Teladorsagia circumcincta; conditions: resistant strain, L3, 100 μM; NE = Not Effective at 100 μM; control ivermectin 8.75 µg/mL
Source text: as §1, §2, §3

[9] = Caenorhabditis elegans, 24 h, read-out: EC50 (μM) at 24 h, C. elegans motility, DR assay, 24 h
[10] = 0 h, read-out: Inhibition (%) 110 μM (0 h), C. elegans L4 motility, 110 μM, 0 h, mean ± SD of four experiments
[11] = 24 h, read-out: Inhibition (%) 110 μM (24 h), C. elegans L4 motility, 110 μM, 24 h, mean ± SD of four experiments
[12] = 24 h, read-out: Percentage of motility inhibition 24 h, Table S2, C. elegans SS assay, 110 μM, 24 h, averages of 4 data points
[13] = Caenorhabditis elegans, read-out: EC50 (μM) at 24 h, C. elegans motility, DR assay
[14] = 0 h, read-out: Inhibition (%) 110 μM (0 h)
[15] = 24 h, read-out: Inhibition (%) 110 μM (24 h)
[16] = read-out: EC50 (μM) at 24 h, C. elegans motility, DR assay

Row | Molecule | EC50 (C. elegans [1]; [9]) [µM] | inhibition at 110 µM (C. elegans [2]; [10]) [%] | inhibition at 110 µM (C. elegans [2]; [11]) [%] | inhibition at 100 µM [3] [%] | inhibition at 100 µM [4] [%] | other results
1 | O=[N+]([O-])c1ccc(O)c2ncccc12 [Nitroxoline, reference compound] | > 60 | 52 ± 32 | 88 ± 2 |  |  | 
2 | CC1(C)CCC[C@]2(C)[C@@H](C=O)C(C=O)=CC[C@@H]12 [Polygodial] | 33.2 ± 6.4 | 0 | 93 ± 4 | 0 | 0 | 
3 | Oc1ccc(/C=C/c2cc(O)cc(O)c2)cc1 [Resveratrol] | 27.7 ± 1.5 | 82 ± 8 | 7 ± 7 | 0 | 0 | 
4 | NC(=O)c1ncn([C@@H]2O[C@H](CO)[C@@H](O)[C@H]2O)n1 [Ribavirin, reference compound] | > 60 | 91 ± 5 | 76 ± 11 |  |  | 
5 | N=C(N/N=C/c1ccc(Cl)cc1)N/N=C/c1ccc(Cl)cc1 [Robenidine, reference compound] | 32.3 ± 2.8 | 93 ± 5 | 81 ± 20 | 59.7 ± 0.7 | 3.1 ± 6.9 | inhibition at 110 µM (C. elegans [2]; [12]): 80%
6 | CC[C@@H](C(=O)[C@@H](C)[C@@H](O)[C@H](C)[C@@H]1O[C@@H]([C@@H](CC)C(=O)O)CC[C@@H]1C)[C@H]1O[C@]2(C=C[C@@H](O)[C@]3(CC[C@@](C)([C@H]4CC[C@](O)(CC)[C@H](C)O4)O3)O2)[C@H](C)C[C@@H]1C [Salinomycin, reference compound] |  |  |  | 2.8 ± 5.1 | 0 | EC50 (C. elegans [1]; [13]): 55.3 ± 1.4 µM; inhibition at 110 µM (C. elegans [2]; [14]): 81 ± 9%; inhibition at 110 µM (C. elegans [2]; [15]): 94 ± 1%; inhibition at 110 µM (C. elegans [2]; [12]): 93%
7 | Nc1ccc(S(=O)(=O)Nc2cnc3ccccc3n2)cc1 [Sulfaquinoxaline, reference compound] | > 60 | 87 ± 1 | 67 ± 6 |  |  | 
8 | c1ccc2[nH]c(-c3cscn3)nc2c1 [Thiabendazole, reference compound] |  |  |  | 100 |  | EC50 ([3]; egg hatching, susceptible H. contortus, nine replicates, read-out: Ovicidal Effect EC50 (μM) H. c): 0.28 ± 0.01 µM; EC50 ([5]; egg hatching, resistant T. circumcincta, nine replicates, read-out: Ovicidal Effect EC50 (μM) T. c): 1.53 ± 0.06 µM; inhibition at 100 µM ([5]; resistant strain, 100 μM, NE = Not Effective at 100 μM, control thiabendazole 0.1 µg/mL): 100%
9 | CC(C)[C@]12O[C@H]1[C@@H]1O[C@]13[C@]1(O[C@H]1C[C@H]1C4=C(CC[C@@]13C)C(=O)OC4)[C@@H]2O [Triptolide] |  |  |  |  |  | EC50 (C. elegans [1]; [13]): > 60 µM; inhibition at 110 µM (C. elegans [2]; [14]): 15%; inhibition at 110 µM (C. elegans [2]; [15]): 72 ± 1%; inhibition at 110 µM (C. elegans [2]; [12]): 71%
10 | Ivermectin [reference compound] |  |  |  |  |  | EC50 (C. elegans [6]): 0.19 µM; EC50 (C. elegans [1]; [16]): 2.18 µM; Inhibition (%) 110 μM (0 h) (C. elegans [7]): 98 ± 1%; Inhibition (%) 110 μM (24 h) (C. elegans [7]): 85 ± 14%; T. circumcincta LMIT (%) [8]: 100.0 ± 0.0%; H. contortus LMIT (%) [4]: 100.0 ± 0.0%
11 | Spiramycin [reference compound] |  |  |  |  |  | EC50 (C. elegans [1]; [16]): > 60 µM; Inhibition (%) 110 μM (0 h) (C. elegans [7]; C. elegans L4 motility, 110 μM, 0 h, mean ± SD of four experiments): 43 ± 42%; Inhibition (%) 110 μM (24 h) (C. elegans [7]; C. elegans L4 motility, 110 μM, 24 h, mean ± SD of four experiments): 81 ± 9%; Percentage of motility inhibition 0 h (C. elegans [7]; Table S2, C. elegans SS assay, 110 μM, 0 h, averages of 4 data points): 42%; Percentage of motility inhibition 24 h (C. elegans [7]; Table S2, C. elegans SS assay, 110 μM, 24 h, averages of 4 data points): 80%
